Source: ChEMBL document CHEMBL1133808, “The discovery of sulfonylated dipeptides as potent VLA-4 antagonists” (Bioorg Med Chem Lett, 2001)

Tests used:
Integrin alpha-4/beta-1 [1] = biological target: T1, Integrin alpha-4/beta-1 (Homo sapiens, UniProt P05556+P13612); assay: Inhibition of [125I]VCAM-Ig binding to VLA-4 integrin of human Jurkat cells; assay type: cell-based
Integrin alpha-4/beta-1 [2] = biological target: T1, Integrin alpha-4/beta-1; assay: Inhibition of [125I]-VCAM-Ig binding to VLA-4 integrin of human Jurkat cells; assay type: cell-based
[3] = Plasma clearance in Sprague-Dawley rats; assay type: ADME, organism-based; conditions: rat, read-out: Clp
[4] = Oral bioavailability in rat (Sprague-Dawley) (dose 1 mg/kg i.v.); assay type: ADME, organism-based; conditions: in vivo
[5] = Oral bioavailability in rat (Sprague-Dawley) (dose 2 mg/kg); assay type: ADME, organism-based; conditions: in vivo
Integrin alpha-4/beta-1 [6] = biological target: T1, Integrin alpha-4/beta-1; assay: Antagonistic activity against VLA-4 integrin of human jurkat cells using [125I]VCAM-Ig as radioligand; assay type: functional, cell-based
[7] = Plasma half-life in Beagle dogs; assay type: ADME, organism-based, Canis lupus familiaris; conditions: dog
[8] = Compound was tested for protein binding in human plasma; assay type: ADME, cell-free; conditions: read-out: Protein binding (converted)
[9] = Plasma half-life in rhesus monkey; conditions: cercopithecidae
[10] = Plasma clearance in rhesus monkey; assay type: ADME, organism-based; conditions: cercopithecidae, read-out: Clp
[11] = Plasma clearance in Beagle dogs; assay type: ADME, organism-based, Canis lupus familiaris; conditions: dog, read-out: Clp
[12] = Plasma half-life in Sprague-Dawley rats; assay type: ADME, organism-based; conditions: rat
[13] = Compound was tested for protein binding in rat plasma; assay type: ADME, organism-based; conditions: read-out: Protein binding (converted)
Integrin alpha-4/beta-7 [14] = biological target: T2, Integrin alpha-4/beta-7 (Homo sapiens, UniProt P13612+P26010); assay: Inhibition of [125I]VCAM-Ig binding to alpha4-beta7 integrin of human RPMI-8866 cells; assay type: cell-based
T2 sequence (P13612 whole entry): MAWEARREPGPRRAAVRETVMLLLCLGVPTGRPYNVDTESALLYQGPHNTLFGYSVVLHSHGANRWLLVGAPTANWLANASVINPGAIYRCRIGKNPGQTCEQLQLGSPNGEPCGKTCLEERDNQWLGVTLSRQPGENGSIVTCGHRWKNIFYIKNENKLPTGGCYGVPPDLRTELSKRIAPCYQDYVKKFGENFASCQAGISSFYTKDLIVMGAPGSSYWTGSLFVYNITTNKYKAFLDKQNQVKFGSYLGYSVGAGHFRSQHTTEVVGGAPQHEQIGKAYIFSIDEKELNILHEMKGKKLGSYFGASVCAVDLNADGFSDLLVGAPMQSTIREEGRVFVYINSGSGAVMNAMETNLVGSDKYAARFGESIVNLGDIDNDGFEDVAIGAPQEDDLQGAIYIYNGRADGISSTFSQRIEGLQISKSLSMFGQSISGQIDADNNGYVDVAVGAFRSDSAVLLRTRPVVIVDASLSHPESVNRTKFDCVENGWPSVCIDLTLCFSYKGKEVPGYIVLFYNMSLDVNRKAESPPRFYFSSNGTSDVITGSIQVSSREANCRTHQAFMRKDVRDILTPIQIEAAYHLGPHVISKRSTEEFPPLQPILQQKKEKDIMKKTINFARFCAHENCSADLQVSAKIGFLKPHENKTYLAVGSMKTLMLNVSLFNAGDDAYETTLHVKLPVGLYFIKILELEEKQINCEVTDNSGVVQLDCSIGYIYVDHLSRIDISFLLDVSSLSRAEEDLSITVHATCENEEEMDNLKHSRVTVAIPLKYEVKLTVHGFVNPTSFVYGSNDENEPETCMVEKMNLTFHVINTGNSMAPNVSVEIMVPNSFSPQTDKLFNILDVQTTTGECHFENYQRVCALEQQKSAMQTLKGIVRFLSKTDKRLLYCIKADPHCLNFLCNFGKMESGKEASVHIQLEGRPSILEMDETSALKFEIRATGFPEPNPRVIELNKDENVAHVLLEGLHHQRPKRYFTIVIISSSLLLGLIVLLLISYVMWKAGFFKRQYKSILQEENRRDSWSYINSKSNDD
T2 sequence (P26010 whole entry): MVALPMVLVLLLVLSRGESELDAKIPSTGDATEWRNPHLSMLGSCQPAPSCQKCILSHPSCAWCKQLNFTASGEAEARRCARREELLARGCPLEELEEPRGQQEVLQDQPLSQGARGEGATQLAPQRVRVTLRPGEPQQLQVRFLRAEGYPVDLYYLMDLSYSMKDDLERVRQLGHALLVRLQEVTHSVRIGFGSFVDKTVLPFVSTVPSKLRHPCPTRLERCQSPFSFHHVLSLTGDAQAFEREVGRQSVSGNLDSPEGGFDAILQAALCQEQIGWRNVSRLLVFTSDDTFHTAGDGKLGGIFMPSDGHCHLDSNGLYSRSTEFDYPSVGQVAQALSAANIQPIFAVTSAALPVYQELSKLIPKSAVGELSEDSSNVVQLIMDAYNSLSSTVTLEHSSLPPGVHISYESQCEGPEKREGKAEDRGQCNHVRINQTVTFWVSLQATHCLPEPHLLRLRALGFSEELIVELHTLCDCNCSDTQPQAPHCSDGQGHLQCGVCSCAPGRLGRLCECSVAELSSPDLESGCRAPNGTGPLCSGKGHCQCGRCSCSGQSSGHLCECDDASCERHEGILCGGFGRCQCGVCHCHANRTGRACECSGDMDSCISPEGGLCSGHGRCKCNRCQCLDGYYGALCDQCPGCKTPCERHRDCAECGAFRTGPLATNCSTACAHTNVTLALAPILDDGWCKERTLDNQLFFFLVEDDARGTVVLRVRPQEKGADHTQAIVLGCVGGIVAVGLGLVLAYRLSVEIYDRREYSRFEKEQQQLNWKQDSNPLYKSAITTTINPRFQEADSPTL

Integrin alpha-4/beta-7 [15] = biological target: T2, Integrin alpha-4/beta-7; assay: Inhibition of [125I]MAdCAM-Ig binding to alpha4-beta7 integrin of human RPMI-8866 cells; assay type: cell-based
[16] = Oral bioavailability in Sprague-Dawley rats; assay type: ADME, organism-based; conditions: rat, in vivo

T1 sequence (P05556 whole entry, one chain of several): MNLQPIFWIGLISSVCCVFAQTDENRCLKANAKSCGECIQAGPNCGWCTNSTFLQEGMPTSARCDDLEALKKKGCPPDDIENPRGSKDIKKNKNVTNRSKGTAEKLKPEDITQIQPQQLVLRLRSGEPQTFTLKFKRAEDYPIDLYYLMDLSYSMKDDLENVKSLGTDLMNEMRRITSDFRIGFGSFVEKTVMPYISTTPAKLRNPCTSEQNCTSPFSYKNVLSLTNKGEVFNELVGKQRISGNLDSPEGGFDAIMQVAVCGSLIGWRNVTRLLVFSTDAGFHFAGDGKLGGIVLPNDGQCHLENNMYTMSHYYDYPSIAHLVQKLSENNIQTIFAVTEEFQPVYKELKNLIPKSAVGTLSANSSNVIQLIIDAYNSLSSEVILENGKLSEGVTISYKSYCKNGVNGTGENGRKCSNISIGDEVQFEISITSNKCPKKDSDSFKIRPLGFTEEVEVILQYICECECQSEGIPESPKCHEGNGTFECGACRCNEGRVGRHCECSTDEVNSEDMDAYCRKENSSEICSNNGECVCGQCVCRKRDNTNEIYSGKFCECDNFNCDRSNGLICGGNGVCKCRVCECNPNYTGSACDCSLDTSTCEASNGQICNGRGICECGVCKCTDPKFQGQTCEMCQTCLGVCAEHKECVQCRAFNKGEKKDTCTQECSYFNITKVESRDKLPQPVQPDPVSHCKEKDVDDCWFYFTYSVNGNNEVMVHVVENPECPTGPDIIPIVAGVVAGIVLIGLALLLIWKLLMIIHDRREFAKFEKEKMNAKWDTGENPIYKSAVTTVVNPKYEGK

Compound | clearance [3] | IC50 (Integrin alpha-4/beta-1 [6]) | half-life [12] | IC50 (Integrin alpha-4/beta-7 [15]) | also measured
CCCC[C@H](NC(=O)[C@@H]1Cc2ccccc2CN1S(=O)(=O)c1ccc(OC)c(OC)c1)C(=O)O | – | – | – | – | IC50 (Integrin alpha-4/beta-1 [1]): 58 nM
COc1ccc(S(=O)(=O)N2Cc3ccccc3C[C@H]2C(=O)N[C@@H](CCC(=O)O)C(=O)O)cc1OC | – | – | – | – | IC50 (Integrin alpha-4/beta-1 [2]): 257 nM
C[C@@]1(C(=O)N[C@@H](Cc2ccc(-c3ccccc3C#N)cc2)C(=O)O)CCCN1S(=O)(=O)c1cc(Cl)cc(Cl)c1 | – | 0.92 nM | 1.5 h | – | half-life [7]: 3.4 h; fraction unbound [8]: 0.005; half-life [9]: 5.3 h; clearance [10]: 12 mL/min/kg; clearance [11]: 25 mL/min/kg; fraction unbound [13]: 0.005; IC50 (Integrin alpha-4/beta-7 [14]): 345 nM
COc1cccc(OC)c1-c1ccc(C[C@H](NC(=O)[C@]2(C)CCCN2S(=O)(=O)c2cc(Cl)cc(Cl)c2)C(=O)O)cc1 | > 100 mL/min/kg | 0.08 nM | 2.2 h | 11.5 nM | IC50 (Integrin alpha-4/beta-7 [14]): 2.98 nM
C[C@@]1(C(=O)N[C@@H](Cc2ccc(-c3ccccn3)cc2)C(=O)O)CCCN1S(=O)(=O)c1cc(Cl)cc(Cl)c1 | 17 mL/min/kg | 0.15 nM | 1 h | 97.1 nM | –
N#Cc1ccccc1-c1ccc(C[C@H](NC(=O)[C@@H]2CCCN2S(=O)(=O)c2cc(Cl)cc(Cl)c2)C(=O)O)cc1 | 21 mL/min/kg | 0.46 nM | – | – | bioavailability [4]: 4%; bioavailability [5]: 4%

Continued, in another order:

clearance [3] | IC50 (Integrin alpha-4/beta-1 [6]) | half-life [12] | IC50 (Integrin alpha-4/beta-7 [15]) | Compound | also measured
39 mL/min/kg | 0.64 nM | – | – | COc1ccccc1-c1ccc(C[C@H](NC(=O)[C@@H]2CCCN2S(=O)(=O)c2cc(Cl)cc(Cl)c2)C(=O)O)cc1 | bioavailability [4]: 3%; bioavailability [5]: 3%
49 mL/min/kg | 0.5 nM | 0.6 h | – | O=C(O)[C@H](Cc1ccc2ccccc2c1)NC(=O)[C@@H]1CCCN1S(=O)(=O)c1cc(Cl)cc(Cl)c1 | fraction unbound [8]: 0.004; bioavailability [16]: 15%
> 100 mL/min/kg | 0.07 nM | 1.5 h | 14.2 nM | COc1cccc(OC)c1-c1ccc(C[C@H](NC(=O)[C@]2(C)CCN2S(=O)(=O)c2cc(Cl)cc(Cl)c2)C(=O)O)cc1 | –
